{"source": "PubChem BioAssay AID1259409", "about": "(Chemical Carcinogenesis Research Information System (CCRIS), 2018)", "origin": "cited, not measured here", "system": "rodent chemically induced tumor inhibition, incidence and multiplicity", "assay": "CCRIS tumor inhibitor studies", "note": "Several values for one entry are separate records, joined by “and”; a condition that tells them apart may be missing. Identical values can stand only once.", "data": [{"smiles": "CC(=O)O[C@H]1CC(C)(C)C(=C=C/C(C)=C/C=C/C(C)=C/C=C/C=C(C)/C=C/C=C(\\C)C(=O)C[C@@]23O[C@]2(C)C[C@@H](O)CC3(C)C)[C@](C)(O)C1", "values": [{"measurement": "tumour outcome (control, treated, inhibition, significance)", "setting": "Carcinogen: N-ETHYL-N'-NITRO-N-NITROSOGUANIDINE, 70-25-7, Dose [Inhibitor]: 0, 0.005% IN DRINKING WATER (DISSOLVED IN 50 MG/ML DMSO) FOR 4 WK BEGINNING POST CARCINOGEN TREATMENT FOLLOWED BY 12 WK, Route [Inhibitor]: ORAL, Species: MOUSE, Strain/Sex: C57BL/MALE, Target Tissue: Type of Lesion: DUODENUM: TUMORS, Dose [Carcinogen]: 100 MG/L IN DRINKING WATER AD LIBITUM FOR 4 WK, Promoter: NONE USED", "result": "14/28 (78%), 13/20 (65%), 17%, not significant"}, {"measurement": "tumour outcome (control, treated, inhibition, significance)", "setting": "Carcinogen: N-ETHYL-N'-NITRO-N-NITROSOGUANIDINE, 70-25-7, Dose [Inhibitor]: 0, 0.005% IN DRINKING WATER (DISSOLVED IN 50 MG/ML DMSO) FOR 16 WK BEGINNING POST CARCINOGEN TREATMENT (STUDY DURATION:, Route [Inhibitor]: ORAL, Species: MOUSE, Strain/Sex: C57BL/MALE, Target Tissue: Type of Lesion: DUODENUM: TUMORS, Dose [Carcinogen]: 100 MG/L IN DRINKING WATER AD LIBITUM FOR 4 WK, Promoter: NONE USED", "result": "14/21 (67%), 7/20 (35%), 48%, p<0.05 and 14/28 (78%), 6/20 (30%), 62%, p<0.005"}, {"measurement": "tumour outcome (control, treated, inhibition, significance)", "setting": "Carcinogen: N-ETHYL-N'-NITRO-N-NITROSOGUANIDINE, 4245-77-6, Dose [Inhibitor]: 0, 0.005% IN DRINKING WATER BEGINNING POST CARCINOGEN TREATMENT AND CONTINUING FOR 16 WK (STUDY DURATION: 20 WK), Route [Inhibitor]: ORAL, Species: MOUSE, Strain/Sex: C57BL/MALE, Target Tissue: Type of Lesion: DUODENUM: TUMOR, Dose [Carcinogen]: 100 MG/L DRINKING WATER FOR 4 WK, Promoter: NONE USED", "result": "14/21 (67%), 7/20 (35%), 48%, p<0.05"}]}, {"smiles": "C=C(C)[C@@H]1CC[C@]2(C(=O)O)CC[C@]3(C)[C@H](CC[C@@H]4[C@@]5(C)CC[C@H](O)C(C)(C)[C@@H]5CC[C@]43C)[C@@H]12", "values": [{"measurement": "tumour outcome (control, treated, inhibition, significance)", "setting": "Carcinogen: 7,12-DIMETHYLBENZ[A]ANTHRACENE, 57-97-6, Dose [Inhibitor]: 0, 5 UMOL 2/WK BEGINNING 1 WK POST CARCINOGEN TREATMENT AND CONTINUING FOR 18 WK (STUDY DURATION: 19 WK), Route [Inhibitor]: DERMAL, Species: MOUSE, Strain/Sex: ICR/FEMALE, Target Tissue: Type of Lesion: SKIN: PAPILLOMA, Dose [Carcinogen]: 50 UG ONCE, Promoter: 12-O-TETRADECANOYLPHORBOL-13-ACETATE, 16561-29-8", "result": "100%, 65%, 35%, not calculated"}]}, {"smiles": "CC1(C)OC(=O)C=C[C@]2(C)[C@H]3CC[C@@]4(C)[C@H](c5ccoc5)OC(=O)[C@H]5O[C@]54[C@]3(C)C(=O)C[C@@H]12", "values": [{"measurement": "tumour outcome (control, treated, inhibition, significance)", "setting": "Carcinogen: AZOXYMETHANE, 25843-45-2, Dose [Inhibitor]: 0, 0.05% IN DIET FOR 35 WK BEGINNING 1 WK POST CARCINOGEN LAST DOSE (STUDY DURATION: 38 WK), Route [Inhibitor]: ORAL, Species: RAT, Strain/Sex: F344/MALE, Target Tissue: Type of Lesion: COLON: ADENOCARCINOMA, Dose [Carcinogen]: 20 MG/KG BW 1/WK FOR 2 WK", "result": "18/25 (72%), 2/16 (13%), 82%, p=0.0002 and 18/25 (72%), 4/16 (25%), 65%, p=0.004"}]}, {"smiles": "O/N=C/Cc1c[nH]c2ccccc12", "values": [{"measurement": "tumour outcome (control, treated, inhibition, significance)", "setting": "Carcinogen: 7,12-DIMETHYLBENZ[A]ANTHRACENE, 57-97-6, Dose [Inhibitor]: 0.1 MMOL IN 1 ML DIMETHYL SULFOXIDE ONCE 20 HR PRIOR TO CARCINOGEN ADMINISTRATION FOLLOWED BY A 14 WK OBSERVATION PERIOD, Route [Inhibitor]: GAVAGE, Species: RAT, Strain/Sex: SPRAGUE-DAWLEY/FEMALE, Target Tissue: Type of Lesion: MAMMARY GLAND: TUMOR, Dose [Carcinogen]: 12 MG IN 1 ML OLIVE OIL ONCE, Promoter: NONE USED", "result": "64%, 19%, 70%, p<0.05"}]}, {"smiles": "C#CCCc1ccccc1", "values": [{"measurement": "tumour outcome (control, treated, inhibition, significance)", "setting": "Carcinogen: 4-(METHYLNITROSAMINO)-1-(3-PYRIDYL)-1-BUTANONE, 64091-91-4, Dose [Inhibitor]: 0, 5 UMOL IN 0.1 ML CORN OIL ONCE 2 HR PRIOR TO CARCINOGEN DOSE (STUDY DURATION: 16 WK), Route [Inhibitor]: GAVAGE, Species: MOUSE, Strain/Sex: STRAIN-A/FEMALE, Target Tissue: Type of Lesion: LUNG: ADENOMA, Dose [Carcinogen]: 10 UMOL IN 0.1 ML SALINE ONCE, Promoter: NONE USED", "result": "100%, 60%, 40%, p<0.01"}]}, {"smiles": "Cc1cc(C)c(C)c(O)c1C", "values": [{"measurement": "tumour outcome (control, treated, inhibition, significance)", "setting": "Carcinogen: BENZO[A]PYRENE, 50-32-8, Dose [Inhibitor]: 0.03 MMOL/G OF DIET DAILY STARTING 7 D BEFORE AND CONTINUING THROUGH 3 D AFTER CARCINOGEN TREATMENT FOLLOWED BY OBSERVAT, Route [Inhibitor]: ORAL, Species: MOUSE, Strain/Sex: ICR/FEMALE, Target Tissue: Type of Lesion: FORESTOMACH: NEOPLASM, Dose [Carcinogen]: 1 MG IN 0.2 ML CORN OIL 2/WK FOR 4 WK, Promoter: NONE USED", "result": "97%, 88%, 9%, not significant and 94%, 89%, 5%, not significant"}]}, {"smiles": "CC(C)Cn1c(=O)n(C)c(=O)c2[nH]cnc21", "values": [{"measurement": "tumour outcome (control, treated, inhibition, significance)", "setting": "Carcinogen: 7,12-DIMETHYLBENZ[A]ANTHRACENE, 57-97-6, Dose [Inhibitor]: 5 UMOL 2/WK FOR 48 WK APPLIED AT LEAST 5 MIN BEFORE AND TO SAME AREA OF SKIN AS EACH PROMOTER DOSE, STARTING 2 WK AFTER, Route [Inhibitor]: DERMAL, Species: MOUSE, Strain/Sex: CD-1/FEMALE, Target Tissue: Type of Lesion: SKIN: CARCINOMA, Dose [Carcinogen]: 0.1 UMOL ONCE 2 WK PRIOR TO FIRST DOSE OF INHIBITOR, Promoter: 12-O-TETRADECANOYLPHORBOL-13-ACETATE;16561-29-8", "result": "35%, 19%, 46%, not calculated"}, {"measurement": "tumour outcome (control, treated, inhibition, significance)", "setting": "Carcinogen: 7,12-DIMETHYLBENZ[A]ANTHRACENE, 57-97-6, Dose [Inhibitor]: 5 UMOL 2/WK FOR 48 WK APPLIED AT LEAST 5 MIN BEFORE AND TO SAME AREA OF SKIN AS EACH PROMOTER DOSE, STARTING 2 WK AFTER, Route [Inhibitor]: DERMAL, Species: MOUSE, Strain/Sex: CD-1/FEMALE, Target Tissue: Type of Lesion: SKIN: PAPILLOMA, Dose [Carcinogen]: 0.1 UMOL ONCE 2 WK PRIOR TO FIRST DOSE OF INHIBITOR, Promoter: 12-O-TETRADECANOYLPHORBOL-13-ACETATE;16561-29-8", "result": "100%, 82%, 18%, not calculated"}, {"measurement": "tumour outcome (control, treated, inhibition, significance)", "setting": "Carcinogen: 7,12-DIMETHYLBENZ[A]ANTHRACENE, 57-97-6, Dose [Inhibitor]: 5 UMOL APPLIED 2/WK THROUGHOUT THE STUDY AT LEAST 5 MIN BEFORE AND TO SAME AREA OF SKIN AS EACH DOSE OF PROMOTER STARTIN, Route [Inhibitor]: DERMAL, Species: MOUSE, Strain/Sex: CD-1/FEMALE, Target Tissue: Type of Lesion: SKIN: CARCINOMA, Dose [Carcinogen]: 0.1 UMOL APPLIED ONCE, Promoter: 12-O-TETRADECANOYLPHORBOL-13-ACETATE, 16561-29-8", "result": "35%, 19%, 46%, not calculated"}, {"measurement": "tumour outcome (control, treated, inhibition, significance)", "setting": "Carcinogen: 7,12-DIMETHYLBENZ[A]ANTHRACENE, 57-97-6, Dose [Inhibitor]: 5 UMOL APPLIED 2/WK THROUGHOUT THE STUDY AT LEAST 5 MIN BEFORE AND TO SAME AREA OF SKIN AS EACH DOSE OF PROMOTER STARTIN, Route [Inhibitor]: DERMAL, Species: MOUSE, Strain/Sex: CD-1/FEMALE, Target Tissue: Type of Lesion: SKIN: PAPILLOMA, Dose [Carcinogen]: 0.1 UMOL APPLIED ONCE, Promoter: 12-O-TETRADECANOYLPHORBOL-13-ACETATE, 16561-29-8", "result": "100%, 82%, 18%, not calculated"}, {"measurement": "tumour outcome (control, treated, inhibition, significance)", "setting": "Carcinogen: 7,12-DIMETHYLBENZ[A]ANTHRACENE, 57-97-6, Dose [Inhibitor]: 10 UMOL 1/WK FOR 30 WK APPLIED AT LEAST 5 MIN PRIOR TO EACH CARCINOGEN TREATMENT (STUDY DURATION: 30 WK), Route [Inhibitor]: DERMAL, Species: MOUSE, Strain/Sex: CD-1/FEMALE, Target Tissue: Type of Lesion: SKIN: CARCINOMA, Dose [Carcinogen]: 0.2 UMOL 1/WK FOR 30 WK, Promoter: NONE USED", "result": "59%, 42%, 29%, not significant"}, {"measurement": "tumour outcome (control, treated, inhibition, significance)", "setting": "Carcinogen: 7,12-DIMETHYLBENZ[A]ANTHRACENE, 57-97-6, Dose [Inhibitor]: 10 UMOL 1/WK FOR 30 WK APPLIED AT LEAST 5 MIN PRIOR TO EACH CARCINOGEN TREATMENT (STUDY DURATION: 30 WK), Route [Inhibitor]: DERMAL, Species: MOUSE, Strain/Sex: CD-1/FEMALE, Target Tissue: Type of Lesion: SKIN: PAPILLOMA, Dose [Carcinogen]: 0.2 UMOL ONCE 1/WK FOR 30 WK, Promoter: NONE USED", "result": "100%, 100%, 0%, not significant"}, {"measurement": "tumour outcome (control, treated, inhibition, significance)", "setting": "Carcinogen: 7,12-DIMETHYLBENZ[A]ANTHRACENE, 57-97-6, Dose [Inhibitor]: 10 UMOL APPLIED 1/WK THROUGHOUT THE STUDY AT LEAST 5 MIN BEFORE AND TO SAME AREA OF SKIN AS EACH APPLICATION OF CARCINOG, Route [Inhibitor]: DERMAL, Species: MOUSE, Strain/Sex: CD-1/FEMALE, Target Tissue: Type of Lesion: SKIN: CARCINOMA, Dose [Carcinogen]: 0.2 UMOL 1/WK FOR 30 WK, Promoter: NONE USED", "result": "59%, 42%, 29%, not significant"}, {"measurement": "tumour outcome (control, treated, inhibition, significance)", "setting": "Carcinogen: 7,12-DIMETHYLBENZ[A]ANTHRACENE, 57-97-6, Dose [Inhibitor]: 10 UMOL APPLIED 1/WK THROUGHOUT THE STUDY AT LEAST 5 MIN BEFORE AND TO SAME AREA OF SKIN AS EACH APPLICATION OF CARCINOG, Route [Inhibitor]: DERMAL, Species: MOUSE, Strain/Sex: CD-1/FEMALE, Target Tissue: Type of Lesion: SKIN: PAPILLOMA, Dose [Carcinogen]: 0.2 UMOL 1/WK FOR 30 WK, Promoter: NONE USED", "result": "100%, 100%, 0%, not significant"}, {"measurement": "outcome", "setting": "Carcinogen: 7,12-DIMETHYLBENZ[A]ANTHRACENE, 57-97-6, Dose [Inhibitor]: 10 UMOL APPLIED ONCE AT LEAST 5 MIN PRIOR TO CARCINOGEN DOSE (STUDY DURATION: 34 WK), Route [Inhibitor]: DERMAL, Species: MOUSE, Strain/Sex: CD-1/FEMALE, Target Tissue: Type of Lesion: SKIN: CARCINOMA, Dose [Carcinogen]: 3.6 UMOL ONCE, Promoter: NONE USED", "result": "0%, 4%, not calculated"}]}]}
